From article PMC9532703, “A novel small molecule RK-019 inhibits FGFR2-amplification gastric cancer cell proliferation and induces apoptosis in vitro and in vivo” (Frontiers in Pharmacology, 2022)

Legend:
Experiment in all cases: Kinase selectivity panel
Format in all cases: biochemical
Details in all cases: read-out: Inhibition(%) @ 1 µM RK-019
CK1γ2(h) = molecular target: T1, CK1γ2(h) (Homo sapiens, UniProt P78368)
T1 construct: purchased Eurofins Discovery Services (KinaseProfiler)
Procedure, shortened: (§1)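 Single-point selectivity screen: 1 µM compound, recombinant human enzyme, in vitro ATP-site competition binding; result expressed as inhibition ratio.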

WNK2(h) = molecular target: T2, WNK2(h) (Homo sapiens, UniProt Q9Y3S1)
T2 construct: purchased Eurofins Discovery Services (KinaseProfiler)
Procedure, shortened: as §1

mTOR/FKBP12(h) = molecular target: T3, mTOR/FKBP12(h) (Homo sapiens, UniProt P42345)
T3 construct: purchased Eurofins Discovery Services (KinaseProfiler)
Procedure, shortened: as §1

EphA7(h) = molecular target: T4, EphA7(h) (Homo sapiens, UniProt Q15375)
T4 construct: purchased Eurofins Discovery Services (KinaseProfiler)
Procedure, shortened: as §1

Lck(h) activated = molecular target: T5, Lck(h) activated (Homo sapiens, UniProt P06239)
T5 construct: purchased Eurofins Discovery Services (KinaseProfiler)
T5 sequence (P06239 whole entry): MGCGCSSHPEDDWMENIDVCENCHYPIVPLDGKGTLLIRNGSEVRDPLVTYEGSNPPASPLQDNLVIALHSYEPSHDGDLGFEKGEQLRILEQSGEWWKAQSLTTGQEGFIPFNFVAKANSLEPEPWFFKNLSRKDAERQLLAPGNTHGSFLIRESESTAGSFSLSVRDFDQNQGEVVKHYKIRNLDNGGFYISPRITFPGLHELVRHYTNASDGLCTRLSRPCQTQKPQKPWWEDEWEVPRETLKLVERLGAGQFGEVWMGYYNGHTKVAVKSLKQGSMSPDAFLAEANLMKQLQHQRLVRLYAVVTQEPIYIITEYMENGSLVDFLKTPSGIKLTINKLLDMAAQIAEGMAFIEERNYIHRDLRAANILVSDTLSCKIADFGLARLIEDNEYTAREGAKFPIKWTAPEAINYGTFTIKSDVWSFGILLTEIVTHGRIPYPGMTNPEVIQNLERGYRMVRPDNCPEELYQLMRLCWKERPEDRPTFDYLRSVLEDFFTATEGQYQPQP
Procedure, shortened: as §1

Abl(Y253F)(h) = molecular target: T6, Abl(Y253F)(h) (Homo sapiens, UniProt P00519, Y253F)
T6 construct: purchased Eurofins Discovery Services (KinaseProfiler)
Procedure, shortened: as §1

DDR2(h) = molecular target: T7, DDR2(h) (Homo sapiens, UniProt Q16832)
T7 construct: purchased Eurofins Discovery Services (KinaseProfiler)
Procedure, shortened: as §1

DAPK2(h) = molecular target: T8, DAPK2(h) (Homo sapiens, UniProt Q9UIK4)
T8 construct: purchased Eurofins Discovery Services (KinaseProfiler)
Procedure, shortened: as §1

MST3(h) = molecular target: T9, MST3(h) (Homo sapiens, UniProt Q9Y6E0)
T9 construct: purchased Eurofins Discovery Services (KinaseProfiler)
Procedure, shortened: as §1

PKG1β(h) = molecular target: T10, PKG1β(h) (Homo sapiens, UniProt Q13976)
T10 construct: purchased Eurofins Discovery Services (KinaseProfiler)
Procedure, shortened: as §1

Met(Y1248H)(h) = molecular target: T11, Met(Y1248H)(h) (Homo sapiens, UniProt P08581, Y1230H)
T11 construct: purchased Eurofins Discovery Services (KinaseProfiler)
Procedure, shortened: as §1

VRK2(h) = molecular target: T12, VRK2(h) (Homo sapiens, UniProt Q86Y07)
T12 construct: purchased Eurofins Discovery Services (KinaseProfiler)
T12 sequence (Q86Y07 whole entry): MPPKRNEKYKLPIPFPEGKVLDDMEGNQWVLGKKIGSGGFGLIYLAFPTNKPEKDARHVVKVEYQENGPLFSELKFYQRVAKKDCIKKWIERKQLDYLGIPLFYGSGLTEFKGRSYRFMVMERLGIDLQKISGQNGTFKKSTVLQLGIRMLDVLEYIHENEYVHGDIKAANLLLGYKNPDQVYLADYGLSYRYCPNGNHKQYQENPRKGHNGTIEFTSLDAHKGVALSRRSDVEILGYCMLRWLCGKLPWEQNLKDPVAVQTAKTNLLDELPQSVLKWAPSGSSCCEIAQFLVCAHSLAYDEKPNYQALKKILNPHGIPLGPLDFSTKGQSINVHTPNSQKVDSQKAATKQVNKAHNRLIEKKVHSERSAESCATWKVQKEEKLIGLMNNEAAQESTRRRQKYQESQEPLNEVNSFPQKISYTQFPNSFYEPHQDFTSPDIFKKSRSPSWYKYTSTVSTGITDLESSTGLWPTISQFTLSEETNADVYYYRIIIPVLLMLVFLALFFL
Procedure, shortened: as §1

MAPKAP-K2(h) = molecular target: T13, MAPKAP-K2(h) (Homo sapiens, UniProt P49137)
T13 construct: purchased Eurofins Discovery Services (KinaseProfiler)
T13 sequence (P49137 whole entry): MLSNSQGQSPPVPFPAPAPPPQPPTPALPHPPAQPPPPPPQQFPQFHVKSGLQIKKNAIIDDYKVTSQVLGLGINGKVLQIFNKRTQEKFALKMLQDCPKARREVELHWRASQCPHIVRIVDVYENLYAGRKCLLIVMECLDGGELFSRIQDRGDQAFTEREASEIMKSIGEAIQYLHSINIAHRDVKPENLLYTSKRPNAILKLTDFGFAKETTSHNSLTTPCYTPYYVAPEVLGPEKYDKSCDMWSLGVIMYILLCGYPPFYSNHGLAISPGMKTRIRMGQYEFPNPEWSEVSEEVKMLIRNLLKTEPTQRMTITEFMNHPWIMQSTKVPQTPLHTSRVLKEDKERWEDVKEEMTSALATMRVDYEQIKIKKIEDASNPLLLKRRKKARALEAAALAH
Procedure, shortened: as §1

JNK3(h) = molecular target: T14, JNK3(h) (Homo sapiens, UniProt P53779)
T14 construct: purchased Eurofins Discovery Services (KinaseProfiler)
T14 sequence (P53779 whole entry): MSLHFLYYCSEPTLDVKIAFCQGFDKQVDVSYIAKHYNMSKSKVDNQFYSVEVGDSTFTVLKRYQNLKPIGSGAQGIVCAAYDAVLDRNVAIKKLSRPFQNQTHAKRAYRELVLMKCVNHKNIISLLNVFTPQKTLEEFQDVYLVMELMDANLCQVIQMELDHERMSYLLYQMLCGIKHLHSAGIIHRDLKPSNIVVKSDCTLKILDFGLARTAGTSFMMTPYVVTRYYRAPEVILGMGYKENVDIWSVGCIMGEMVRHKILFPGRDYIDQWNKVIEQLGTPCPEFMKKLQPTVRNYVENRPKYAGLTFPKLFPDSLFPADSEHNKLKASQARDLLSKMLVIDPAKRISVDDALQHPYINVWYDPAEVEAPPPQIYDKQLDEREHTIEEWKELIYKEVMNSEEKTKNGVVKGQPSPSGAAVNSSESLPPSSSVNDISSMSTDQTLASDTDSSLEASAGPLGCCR
Procedure, shortened: as §1

MAP4K4(h) = molecular target: T15, MAP4K4(h) (Homo sapiens, UniProt O95819)
T15 construct: purchased Eurofins Discovery Services (KinaseProfiler)
Procedure, shortened: as §1

cKit(h) = molecular target: T16, cKit(h) (Homo sapiens, UniProt P10721)
T16 construct: purchased Eurofins Discovery Services (KinaseProfiler)
Procedure, shortened: as §1

Plk4(h) = molecular target: T17, Plk4(h) (Homo sapiens, UniProt O00444)
T17 construct: purchased Eurofins Discovery Services (KinaseProfiler)
Procedure, shortened: as §1

PKCμ(h) = molecular target: T18, PKCμ(h) (Homo sapiens, UniProt Q15139)
T18 construct: purchased Eurofins Discovery Services (KinaseProfiler)
Procedure, shortened: as §1

ALK4(h) = molecular target: T19, ALK4(h) (Homo sapiens, UniProt P36896)
T19 construct: purchased Eurofins Discovery Services (KinaseProfiler)
Procedure, shortened: as §1

EGFR(T790M,L858R)(h) = molecular target: T20, EGFR(T790M,L858R)(h) (Homo sapiens, UniProt P00533, L858R/T790M)
T20 construct: purchased Eurofins Discovery Services (KinaseProfiler)
Procedure, shortened: as §1

Haspin(h) = molecular target: T21, Haspin(h) (Homo sapiens, UniProt Q8TF76)
T21 construct: purchased Eurofins Discovery Services (KinaseProfiler)
T21 sequence (Q8TF76 whole entry): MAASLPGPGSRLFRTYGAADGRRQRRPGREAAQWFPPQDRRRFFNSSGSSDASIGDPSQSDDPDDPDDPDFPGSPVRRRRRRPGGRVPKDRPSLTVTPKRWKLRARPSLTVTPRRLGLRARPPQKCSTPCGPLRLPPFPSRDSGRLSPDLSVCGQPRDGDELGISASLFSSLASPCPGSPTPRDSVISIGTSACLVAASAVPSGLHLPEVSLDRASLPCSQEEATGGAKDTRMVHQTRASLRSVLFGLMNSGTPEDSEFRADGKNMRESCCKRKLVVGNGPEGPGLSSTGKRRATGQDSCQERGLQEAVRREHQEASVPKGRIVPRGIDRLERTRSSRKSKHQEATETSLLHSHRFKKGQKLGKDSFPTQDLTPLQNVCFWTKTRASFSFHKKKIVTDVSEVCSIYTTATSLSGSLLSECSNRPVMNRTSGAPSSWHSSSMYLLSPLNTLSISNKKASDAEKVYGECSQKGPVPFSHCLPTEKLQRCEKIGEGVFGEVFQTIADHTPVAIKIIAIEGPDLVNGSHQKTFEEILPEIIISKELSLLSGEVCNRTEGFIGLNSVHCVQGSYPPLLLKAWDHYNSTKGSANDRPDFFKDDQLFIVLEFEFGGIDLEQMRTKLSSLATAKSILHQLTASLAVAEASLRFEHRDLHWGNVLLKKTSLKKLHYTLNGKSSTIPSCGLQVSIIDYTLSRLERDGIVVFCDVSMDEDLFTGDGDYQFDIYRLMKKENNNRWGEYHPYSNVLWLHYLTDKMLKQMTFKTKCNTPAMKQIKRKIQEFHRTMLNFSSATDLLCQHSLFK
Procedure, shortened: as §1

DCAMKL3(h) = molecular target: T22, DCAMKL3(h) (Homo sapiens, UniProt Q9C098)
T22 construct: purchased Eurofins Discovery Services (KinaseProfiler)
T22 sequence (Q9C098 whole entry): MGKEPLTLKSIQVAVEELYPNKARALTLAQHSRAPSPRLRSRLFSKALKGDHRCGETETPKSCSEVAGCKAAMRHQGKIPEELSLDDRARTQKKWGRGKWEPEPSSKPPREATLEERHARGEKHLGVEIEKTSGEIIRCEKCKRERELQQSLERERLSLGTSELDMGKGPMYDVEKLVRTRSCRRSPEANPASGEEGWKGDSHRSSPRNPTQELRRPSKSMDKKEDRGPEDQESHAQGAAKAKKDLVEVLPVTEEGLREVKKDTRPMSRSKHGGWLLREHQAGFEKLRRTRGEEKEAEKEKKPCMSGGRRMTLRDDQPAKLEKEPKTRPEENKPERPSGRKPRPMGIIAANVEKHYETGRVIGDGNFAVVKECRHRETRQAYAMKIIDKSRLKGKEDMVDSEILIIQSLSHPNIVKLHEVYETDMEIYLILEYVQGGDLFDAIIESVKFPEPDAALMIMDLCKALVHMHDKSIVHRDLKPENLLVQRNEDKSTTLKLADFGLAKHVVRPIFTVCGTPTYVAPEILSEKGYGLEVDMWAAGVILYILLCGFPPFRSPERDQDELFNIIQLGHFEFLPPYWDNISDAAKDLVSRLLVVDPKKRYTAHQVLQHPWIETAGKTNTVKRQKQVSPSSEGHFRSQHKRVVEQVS
Procedure, shortened: as §1

CLK2(h) = molecular target: T23, CLK2(h) (Homo sapiens, UniProt P49760)
T23 construct: purchased Eurofins Discovery Services (KinaseProfiler)
Procedure, shortened: as §1

Pim-2(h) = molecular target: T24, Pim-2(h) (Homo sapiens, UniProt Q9P1W9)
T24 construct: purchased Eurofins Discovery Services (KinaseProfiler)
Procedure, shortened: as §1

PAK5(h) = molecular target: T25, PAK5(h) (Homo sapiens, UniProt Q9P286)
T25 construct: purchased Eurofins Discovery Services (KinaseProfiler)
Procedure, shortened: as §1

GRK7(h) = molecular target: T26, GRK7(h) (Homo sapiens, UniProt Q8WTQ7)
T26 construct: purchased Eurofins Discovery Services (KinaseProfiler)
T26 sequence (Q8WTQ7 whole entry): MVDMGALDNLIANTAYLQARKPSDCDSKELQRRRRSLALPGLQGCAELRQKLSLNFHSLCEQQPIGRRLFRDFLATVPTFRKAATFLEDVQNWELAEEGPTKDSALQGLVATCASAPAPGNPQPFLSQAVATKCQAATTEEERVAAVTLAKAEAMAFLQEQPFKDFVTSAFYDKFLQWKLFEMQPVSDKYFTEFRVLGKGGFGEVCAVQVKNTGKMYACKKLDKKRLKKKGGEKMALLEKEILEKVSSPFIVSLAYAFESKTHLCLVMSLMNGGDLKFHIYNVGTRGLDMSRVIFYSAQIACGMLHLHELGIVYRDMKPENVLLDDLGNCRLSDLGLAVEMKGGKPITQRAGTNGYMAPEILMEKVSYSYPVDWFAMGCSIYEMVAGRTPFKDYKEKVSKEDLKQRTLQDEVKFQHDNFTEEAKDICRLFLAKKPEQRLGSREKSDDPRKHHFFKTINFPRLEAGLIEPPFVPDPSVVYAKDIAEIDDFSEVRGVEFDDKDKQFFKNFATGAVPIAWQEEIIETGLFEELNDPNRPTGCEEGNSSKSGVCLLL
Procedure, shortened: as §1

CDK12/cyclinK(h) = molecular target: T27, CDK12/cyclinK(h) (Homo sapiens, UniProt Q9NYV4)
T27 construct: purchased Eurofins Discovery Services (KinaseProfiler)
Procedure, shortened: as §1

eEF-2K(h) = molecular target: T28, eEF-2K(h) (Homo sapiens, UniProt O00418)
T28 construct: purchased Eurofins Discovery Services (KinaseProfiler)
Procedure, shortened: as §1

MAPK1(h) = molecular target: T29, MAPK1(h) (Homo sapiens, UniProt P27361)
T29 construct: purchased Eurofins Discovery Services (KinaseProfiler)
T29 sequence (P27361 whole entry): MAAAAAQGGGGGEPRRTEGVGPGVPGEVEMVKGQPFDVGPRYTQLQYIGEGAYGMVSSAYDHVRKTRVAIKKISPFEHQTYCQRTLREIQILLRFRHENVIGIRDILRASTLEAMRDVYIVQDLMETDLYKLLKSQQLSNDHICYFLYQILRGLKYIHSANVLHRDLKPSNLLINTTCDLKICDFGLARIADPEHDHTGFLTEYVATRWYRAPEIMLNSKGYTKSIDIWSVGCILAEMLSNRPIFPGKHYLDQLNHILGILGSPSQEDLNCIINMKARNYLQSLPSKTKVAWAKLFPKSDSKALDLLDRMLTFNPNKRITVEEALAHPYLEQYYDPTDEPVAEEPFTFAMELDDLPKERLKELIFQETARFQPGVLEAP
Procedure, shortened: as §1

Cdc7/cyclinB1(h) = molecular target: T30, Cdc7/cyclinB1(h) (Homo sapiens, UniProt O00311)
T30 construct: purchased Eurofins Discovery Services (KinaseProfiler)
Procedure, shortened: as §1

CaMKIIγ(h) = molecular target: T31, CaMKIIγ(h) (Homo sapiens, UniProt Q13555)
T31 construct: purchased Eurofins Discovery Services (KinaseProfiler)
T31 sequence (Q13555 whole entry): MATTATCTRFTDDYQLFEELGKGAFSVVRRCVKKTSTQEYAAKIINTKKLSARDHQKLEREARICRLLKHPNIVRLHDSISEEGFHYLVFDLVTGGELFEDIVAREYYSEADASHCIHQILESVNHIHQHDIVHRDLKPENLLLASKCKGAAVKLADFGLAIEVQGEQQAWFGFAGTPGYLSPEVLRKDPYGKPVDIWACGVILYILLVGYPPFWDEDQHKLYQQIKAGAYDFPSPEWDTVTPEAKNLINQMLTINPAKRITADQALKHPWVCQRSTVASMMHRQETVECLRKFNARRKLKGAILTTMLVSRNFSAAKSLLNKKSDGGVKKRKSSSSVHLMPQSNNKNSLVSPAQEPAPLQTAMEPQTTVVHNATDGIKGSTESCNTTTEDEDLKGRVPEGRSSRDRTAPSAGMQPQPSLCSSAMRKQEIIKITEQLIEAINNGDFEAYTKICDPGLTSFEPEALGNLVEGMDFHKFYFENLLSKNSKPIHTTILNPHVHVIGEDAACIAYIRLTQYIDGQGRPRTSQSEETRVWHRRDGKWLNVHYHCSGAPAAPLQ
Procedure, shortened: as §1

WNK4(h) = molecular target: T32, WNK4(h) (Homo sapiens, UniProt Q96J92)
T32 construct: purchased Eurofins Discovery Services (KinaseProfiler)
Procedure, shortened: as §1

CDKL3(h) = molecular target: T33, CDKL3(h) (Homo sapiens, UniProt Q8IVW4)
T33 construct: purchased Eurofins Discovery Services (KinaseProfiler)
Procedure, shortened: as §1

Met(h) = molecular target: T34, Met(h) (Homo sapiens, UniProt P08581)
T34 construct: purchased Eurofins Discovery Services (KinaseProfiler)
Procedure, shortened: as §1

GRK2(h) = molecular target: T35, GRK2(h) (Homo sapiens, UniProt P25098)
T35 construct: purchased Eurofins Discovery Services (KinaseProfiler)
Procedure, shortened: as §1

IKKβ(h) = molecular target: T36, IKKβ(h) (Homo sapiens, UniProt O14920)
T36 construct: purchased Eurofins Discovery Services (KinaseProfiler)
Procedure, shortened: as §1

TAO2(h) = molecular target: T37, TAO2(h) (Homo sapiens, UniProt Q9UL54)
T37 construct: purchased Eurofins Discovery Services (KinaseProfiler)
Procedure, shortened: as §1

COc1cc(OC)cc(N(CCN[C@H](C)CO)c2ccc3ncc(-c4cnn(C)c4)c(=O)n3c2)c1 [RK-019, (R)-7-((3,5-dimethoxyphenyl) (2-((1-hydroxypropan-2-yl)amino)ethyl)amino)-3-(1-methyl-1H-pyrazol-4-yl)-4H-pyrido [1,2-a]pyrimidin-4-one]
activity at 1 µM (CK1γ2(h)): 97%
activity at 1 µM (WNK2(h)): 103%
activity at 1 µM (mTOR/FKBP12(h)): 92%
activity at 1 µM (EphA7(h)): 108%
activity at 1 µM (Lck(h) activated): 36%
activity at 1 µM (Abl(Y253F)(h)): 54%
activity at 1 µM (DDR2(h)): 109%
activity at 1 µM (DAPK2(h)): 97%
activity at 1 µM (MST3(h)): 122%
activity at 1 µM (PKG1β(h)): 103%
activity at 1 µM (Met(Y1248H)(h)): 113%
activity at 1 µM (VRK2(h)): 104%
activity at 1 µM (MAPKAP-K2(h)): 121%
activity at 1 µM (JNK3(h)): 91%
activity at 1 µM (MAP4K4(h)): 82%
activity at 1 µM (cKit(h)): 73%
activity at 1 µM (Plk4(h)): 91%
activity at 1 µM (PKCμ(h)): 107%
activity at 1 µM (ALK4(h)): 91%
activity at 1 µM (EGFR(T790M,L858R)(h)): 92%
activity at 1 µM (Haspin(h)): 105%
activity at 1 µM (DCAMKL3(h)): 127%
activity at 1 µM (CLK2(h)): 107%
activity at 1 µM (Pim-2(h)): 98%
activity at 1 µM (PAK5(h)): 101%
activity at 1 µM (GRK7(h)): 108%
activity at 1 µM (CDK12/cyclinK(h)): 109%
activity at 1 µM (eEF-2K(h)): 97%
activity at 1 µM (MAPK1(h)): 116%
activity at 1 µM (Cdc7/cyclinB1(h)): 87%
activity at 1 µM (CaMKIIγ(h)): 106%
activity at 1 µM (WNK4(h)): 86%
activity at 1 µM (CDKL3(h)): 102%
activity at 1 µM (Met(h)): 97%
activity at 1 µM (GRK2(h)): 103%
activity at 1 µM (IKKβ(h)): 90%
activity at 1 µM (TAO2(h)): 95%
